# Assay results taken from ChEMBL document CHEMBL5113392, “Novel hybrid pyrrolidinedione-thiazolidinones as potential anticancer agents: Synthesis and biological evaluation” (Eur J Med Chem, 2022).
# Activity calls are given as the source filed them. The calls are words filed in the database; no cut-off is given here.
# Legend:
# UO-31 = test: Anticancer activity against human UO-31 cells assessed as inhibition of cell growth at 10 uM incubated for 48 hrs by SRB assay; assay type: functional; conditions: UO-31, 48 h, values are per cent of control
# NCI-H322M [1] = test: Anticancer activity against human NCI-H322M cells assessed as growth inhibition incubated for 48 hrs by SRB assay; assay type: functional
# NCI-H522 = test: Anticancer activity against human NCI-H522 cells assessed as growth inhibition incubated for 48 hrs by SRB assay; assay type: functional
# HT-29 [2] = test: Anticancer activity against human HT-29 cells assessed as growth inhibition incubated for 48 hrs by SRB assay; assay type: functional
# SF-539 [3] = test: Anticancer activity against human SF-539 cells assessed as growth inhibition incubated for 48 hrs by SRB assay; assay type: functional
# U-251 [4] = test: Anticancer activity against human U-251 cells assessed as growth inhibition incubated for 48 hrs by SRB assay; assay type: functional
# UACC-62 [5] = test: Anticancer activity against human UACC-62 cells assessed as growth inhibition incubated for 48 hrs by SRB assay; assay type: functional
# DU-145 [6] = test: Anticancer activity against human DU-145 cells assessed as growth inhibition incubated for 48 hrs by SRB assay; assay type: functional
# MCF7 = test: Anticancer activity against human MCF7 cells assessed as growth inhibition incubated for 48 hrs by SRB assay; assay type: functional
# MDA-MB-231 [7] = test: Anticancer activity against human MDA-MB-231 cells assessed as growth inhibition incubated for 48 hrs by SRB assay; assay type: functional
# BT-549 [8] = test: Anticancer activity against human BT-549 cells assessed as growth inhibition incubated for 48 hrs by SRB assay; assay type: functional
# [9] = Selectivity index, ratio of GI50 for human HaCaT cells to GI50 for human U-251 cells; assay type: toxicity; conditions: HaCaT cells versus U-251 cells, read-out: RatioGI50
# HOP-92 = test: Anticancer activity against human HOP-92 cells assessed as total growth inhibition incubated for 48 hrs by SRB assay; assay type: functional
# COLO 205 = test: Anticancer activity against human COLO 205 cells assessed as total growth inhibition incubated for 48 hrs by SRB assay; assay type: functional
# HT-29 [10] = test: Anticancer activity against human HT-29 cells assessed as total growth inhibition incubated for 48 hrs by SRB assay; assay type: functional
# SF-539 [11] = test: Anticancer activity against human SF-539 cells assessed as total growth inhibition incubated for 48 hrs by SRB assay; assay type: functional
# SK-MEL-2 [12] = test: Anticancer activity against human SK-MEL-2 cells assessed as total growth inhibition incubated for 48 hrs by SRB assay; assay type: functional
# UACC-257 = test: Anticancer activity against human UACC-257 cells assessed as total growth inhibition incubated for 48 hrs by SRB assay; assay type: functional
# OVCAR-3 = test: Anticancer activity against human OVCAR-3 cells assessed as total growth inhibition incubated for 48 hrs by SRB assay; assay type: functional
# PC-3 = test: Anticancer activity against human PC-3 cells assessed as total growth inhibition incubated for 48 hrs by SRB assay; assay type: functional
# MDA-MB-231 [13] = test: Anticancer activity against human MDA-MB-231 cells assessed as total growth inhibition incubated for 48 hrs by SRB assay; assay type: functional
# BT-549 [14] = test: Anticancer activity against human BT-549 cells assessed as total growth inhibition incubated for 48 hrs by SRB assay; assay type: functional
# CCRF-CEM = test: Anticancer activity against human CCRF-CEM cells assessed as lethality incubated for 48 hrs by SRB assay; assay type: functional; conditions: read-out: LC50 (the source's name)
# K562 = test: Anticancer activity against human K562 cells assessed as lethality incubated for 48 hrs by SRB assay; assay type: functional; conditions: read-out: LC50 (the source's name)
# A549 [15] = test: Anticancer activity against human A549 cells assessed as lethality incubated for 48 hrs by SRB assay; assay type: functional; conditions: read-out: LC50 (the source's name)
# HOP-62 = test: Anticancer activity against human HOP-62 cells assessed as lethality incubated for 48 hrs by SRB assay; assay type: functional; conditions: read-out: LC50 (the source's name)
# NCI-H226 = test: Anticancer activity against human NCI-H226 cells assessed as lethality incubated for 48 hrs by SRB assay; assay type: functional; conditions: read-out: LC50 (the source's name)
# NCI-H322M [16] = test: Anticancer activity against human NCI-H322M cells assessed as lethality incubated for 48 hrs by SRB assay; assay type: functional; conditions: read-out: LC50 (the source's name)
# HT-29 [17] = test: Anticancer activity against human HT-29 cells assessed as lethality incubated for 48 hrs by SRB assay; assay type: functional; conditions: read-out: LC50 (the source's name)
# KM12 = test: Anticancer activity against human KM12 cells assessed as lethality incubated for 48 hrs by SRB assay; assay type: functional; conditions: read-out: LC50 (the source's name)
# SW-620 = test: Anticancer activity against human SW-620 cells assessed as lethality incubated for 48 hrs by SRB assay; assay type: functional; conditions: read-out: LC50 (the source's name)
# SF-268 = test: Anticancer activity against human SF-268 cells assessed as lethality incubated for 48 hrs by SRB assay; assay type: functional; conditions: read-out: LC50 (the source's name)
# SF-539 [18] = test: Anticancer activity against human SF-539 cells assessed as lethality incubated for 48 hrs by SRB assay; assay type: functional; conditions: read-out: LC50 (the source's name)
# SK-MEL-2 [19] = test: Anticancer activity against human SK-MEL-2 cells assessed as lethality incubated for 48 hrs by SRB assay; assay type: functional; conditions: read-out: LC50 (the source's name)
# SK-MEL-28 = test: Anticancer activity against human SK-MEL-28 cells assessed as lethality incubated for 48 hrs by SRB assay; assay type: functional; conditions: read-out: LC50 (the source's name)
# UACC-62 [20] = test: Anticancer activity against human UACC-62 cells assessed as lethality incubated for 48 hrs by SRB assay; assay type: functional; conditions: read-out: LC50 (the source's name)
# NCI/ADR-RES = test: Anticancer activity against human NCI/ADR-RES cells assessed as lethality incubated for 48 hrs by SRB assay; assay type: functional; conditions: read-out: LC50 (the source's name)
# TK-10 = test: Anticancer activity against human TK-10 cells assessed as lethality incubated for 48 hrs by SRB assay; assay type: functional; conditions: read-out: LC50 (the source's name)
# DU-145 [21] = test: Anticancer activity against human DU-145 cells assessed as lethality incubated for 48 hrs by SRB assay; assay type: functional; conditions: read-out: LC50 (the source's name)
# MDA-MB-231 [22] = test: Anticancer activity against human MDA-MB-231 cells assessed as lethality incubated for 48 hrs by SRB assay; assay type: functional; conditions: read-out: LC50 (the source's name)
# Hs-578T = test: Anticancer activity against human Hs-578T cells assessed as lethality incubated for 48 hrs by SRB assay; assay type: functional; conditions: read-out: LC50 (the source's name)
# Jurkat [23] = test: Anticancer activity against human Jurkat cells assessed as cell growth inhibition incubated for 72 hrs by MTT assay; assay type: functional
# A549 [24] = test: Anticancer activity against human A549 cells assessed as cell growth inhibition incubated for 72 hrs by MTT assay; assay type: functional
# U-251 [25] = test: Anticancer activity against human U-251 cells assessed as cell growth inhibition incubated for 72 hrs by MTT assay; assay type: functional
# [26] = Selectivity index, ratio of GI50 for human HaCaT cells to GI50 for human HeLa cells; assay type: toxicity; conditions: HaCaT cells versus HeLa cells, read-out: RatioGI50
# Jurkat [27] = test: Induction of morphological changes in human Jurkat cells assessed as chromatin condensation incubated for 24 hrs by Hoechst 33258 and propidium iodide staining based fluorescence microscopy; assay type: functional, cell-based
# Jurkat [28] = test: Induction of morphological changes in human Jurkat cells assessed as chromatin fragmentation incubated for 24 hrs by Hoechst 33258 and propidium iodide staining based fluorescence microscopy; assay type: functional, cell-based
# Lymphocyte = test: Induction of morphological changes in mitogen activated human peripheral blood lymphocytes assessed as increase in number of single cells incubated for 24 hrs by Hoechst 33258 and propidium iodide staining based fluorescence microscopy; assay type: toxicity, cell-based
# Salmon testes DNA = test: Displacement of methyl green from salmon sperm DNA at 1 uM measured after 2 hrs by fluorescence plate reader method relative to control; assay type: nucleic-acid assay; conditions: Salmo salar
smiles,measurement,setting,value
O=C1CC(N2C(=O)/C(=C/C(Cl)=C/c3ccc([N+](=O)[O-])cc3)SC2=S)C(=O)N1c1ccc(Cl)cc1 (centres undefined),"growth, % of control at 10 µM",UO-31,-42.9%
same,GI50,NCI-H322M [1],3 µM
same,GI50,NCI-H522,1.73 µM
same,GI50,HT-29 [2],0.632 µM
same,GI50,SF-539 [3],1.69 µM
same,GI50,U-251 [4],0.477 µM
same,GI50,UACC-62 [5],1.77 µM
same,GI50,DU-145 [6],2.09 µM
same,GI50,MCF7,1.38 µM
same,GI50,MDA-MB-231 [7],3.75 µM
same,GI50,BT-549 [8],1.75 µM
same,selectivity ratio,[9],11.2
same,TGI,HOP-92,6.79 µM
same,TGI,COLO 205,3.76 µM
same,TGI,HT-29 [10],4.6 µM
same,TGI,SF-539 [11],4.14 µM
same,TGI,SK-MEL-2 [12],32.1 µM
same,TGI,UACC-257,66.5 µM
same,TGI,OVCAR-3,2.62 µM
same,TGI,PC-3,4.15 µM
same,TGI,MDA-MB-231 [13],47.8 µM
same,TGI,BT-549 [14],3.74 µM
same,CC50,CCRF-CEM,> 100 µM
same,CC50,K562,54.9 µM
same,CC50,A549 [15],> 100 µM
same,CC50,HOP-62,> 100 µM
same,CC50,NCI-H226,> 100 µM
same,CC50,NCI-H322M [16],> 100 µM
same,CC50,HT-29 [17],> 100 µM
same,CC50,KM12,> 100 µM
same,CC50,SW-620,> 100 µM
same,CC50,SF-268,> 100 µM
same,CC50,SF-539 [18],> 100 µM
same,CC50,SK-MEL-2 [19],> 100 µM
same,CC50,SK-MEL-28,9.41 µM
same,CC50,UACC-62 [20],12 µM
same,CC50,NCI/ADR-RES,> 100 µM
same,CC50,TK-10,> 100 µM
same,CC50,DU-145 [21],> 100 µM
same,CC50,MDA-MB-231 [22],> 100 µM
same,CC50,Hs-578T,> 100 µM
same,GI50,Jurkat [23],3.4 µM
same,GI50,A549 [24],63.9 µM
same,GI50,U-251 [25],8.93 µM
same,selectivity ratio,[26],15
same,Activity,Jurkat [27],Active
same,Activity,Jurkat [28],Active
same,Activity,Lymphocyte,Toxic
same,Activity,Salmon testes DNA,4.3%
